Measurements from patent US9174979B2, “Phenanthroindolizidine compound and NFκB inhibitor containing same as active ingredient” (KABUSHIKI KAISHA YAKULT HONSHA, priority 2008, dated 2015).
Values after ≈ are worked out from the molar mass of the structure shown. Like-named read-outs stand apart in the source and are kept apart here.

Columns and labels:
NFκB = NFκB luciferase reporter assay in SW480/NRE-Luc cells stimulated with TNFα; assay type: cell-based, human; conditions: for IC50: Homo sapiens
From the text: (§1) The action of the phenanthroindolizidine alkaloid compound of the present invention on the NFκB activity was studied in a luciferase assay. Human colon cancer SW480 cells were transfected with pNFκB-Luc Plasmid (Stratagene), which is a reporter vector in which a five-time tandem repeat of the NFκB responsive element (NRE) is integrated into the upstream of the luciferase gene, using Lipofectamine 2000 (Invitrogen Corporation) in accordance with the attached operating procedure. Subsequently, the cells were cultured in an RPMI1640 medium containing 10% FBS, 100 U/mL penicillin, 100 μg/mL streptomycin, and 0.5 mg/mL G418 to produce SW480 cells having the luciferase gene, the expression of which is regulated by NRE, stably introduced therein (SW480/NRE-Luc cells). Likewise, SW480 cells were transfected with pGL3-Control Vector (Promega Corporation), which is a reporter vector in which the SV40 promoter is integrated into the upstream of the luciferase gene, to produce SW480 cells having the luciferase gene, the expression of which is regulated by the SV40 promoter, stably introduced therein (SW480/SV40-Luc cells). The SW480/NRE-Luc cells or the SW480/SV40-Luc cells were suspended in an RPMI1640 medium containing 10% FBS, 100 U/mL penicillin, and 100 μg/mL streptomycin (10% FBS/RPMI1640), and then seeded in a 96-well microplate, followed by culturing under conditions of 5% CO2 and at 37° C. (5000 cells/well). After an overnight culture, the compound of the present invention was added, followed by culturing for one hour. Further, 50 ng/mL TNFα (Sigma-Aldrich Corporation) was added, followed by culturing for four hours. Subsequently, a Steady-Glo Luciferase Assay reagent (Promega Corporation) was added, and the luminescent intensity was detected by SpectraMax M5e (Molecular Devices, Inc.) to measure the intracellular luciferase activity. It is to be noted that the action of the compound of the present invention on the NFκB activity or the SV40 promoter activity was shown as IC50 values (the concentration of a test compound needed for 50% inhibition of the induction of the luciferase expression).

SV40 promoter = SV40 promoter luciferase reporter assay in SW480/SV40-Luc cells; assay type: cell-based, human; conditions: for IC50: Homo sapiens
From the text: as §1

[1] = tested on: human colon cancer SW480 cells; test: Inhibitory action on the proliferation of SW480 cells; assay type: cell-based; conditions: 48 hours culture, TetraColor ONE; for IC50: Homo sapiens, SW480
Method: (§2) The action of the phenanthroindolizidine alkaloid compound of the present invention on the proliferation of human colon cancer SW480 cells, HT-29 cells, and human non-small cell lung cancer A549 cells was studied. The SW480 cells were suspended in a 10% FBS/RPMI1640 and then seeded in a 96-well microplate, followed by culturing in 5% CO2 at 37° C. (2000 cells/well). The A549 cells and the HT-29 cells were each suspended in a DMEM medium containing 10% FBS, 100 U/mL penicillin, and 100 μg/mL streptomycin (10% FBS/DMEM) and a DMEM F-12 HAM medium containing 10% FBS, 100 U/mL penicillin, and 100 μg/mL streptomycin (10% FBS/DMEM F12 HAM), and then seeded in 96-well microplates, followed by culturing in 5% CO2 at 37° C. (1000 cells/well). After an overnight culture, the compound of the present invention was added, followed by further culturing for 48 hours (SW480 cells) and 96 hours (A549 cells and HT-29 cells). After culturing, the number of viable cells was counted using TetraColor ONE (Seikagaku Corporation) in accordance with the attached operating procedure. The results were expressed as the concentration of a test compound needed for 50% inhibition of the proliferation of the cells (IC50).

[2] = tested on: human colon cancer HT-29 cells; test: Inhibitory action on the proliferation of HT-29 cells; assay type: cell-based; conditions: 96 hours culture, TetraColor ONE; for IC50: Homo sapiens, HT-29
Method: as §2

[3] = tested on: human non-small cell lung cancer A549 cells; test: Inhibitory action on the proliferation of A549 cells; assay type: cell-based; conditions: 96 hours culture, TetraColor ONE; for IC50: Homo sapiens, A549
Method: as §2

mice = test: Animal toxicity test in mice transplanted with Meth A cells; assay type: in vivo, mouse; conditions: intravenous on days 1, 5, 9, observed for three weeks
Method: Also, the toxicity of known phenanthroindolizidine alkaloid compounds in mice, namely (12aS,13S)-6,7-dimethoxy-9,10,11,12,12a,13-hexahydro-9a-aza-cyclopenta[b]triphenylene-3,13-diol (known compound 1; refer to WO01/023384) and (12aS,13S)-3,6,7-trimethoxy-9,10,11,12,12a,13-hexahydro-9a-aza-cyclopenta[b]triphenylene-13-ol (known compound 2; refer to Planta Med., 2002, 68: 186-188), was simultaneously studied. To a control group, a physiological saline solution as a solvent, was administered.

[4] = SW480, read-out: NFκB inhibitory activity IC50
[5] = SW480, read-out: SV40 promoter inhibitory activity IC50
[6] = SW480/NRE-Luc cells, 50 ng/mL TNFα, luciferase expression
[7] = SW480/SV40-Luc cells, luciferase expression

Compound	IC50 (NFκB; [4])	IC50 (SV40 promoter; [5])	IC50 [1]	IC50 [2]	IC50 [3]	NFκB inhibitory activity IC50 (NFκB; [6])	SV40 promoter inhibitory activity IC50 (SV40 promoter; [7])	SW480 proliferation inhibitory action IC50 [1]	HT-29 proliferation inhibitory action IC50 [2]	A549 proliferation inhibitory action IC50 [3]	further results
CCOc1cc2c3c(c4ccc(O)cc4c2cc1OCC)C[C@@H]1CCCN1C3.Cl [Compound 14, (S)-6,7-diethoxy-9,10,11,12,12a,13-hexahydro-9a-aza-cyclopenta[b]triphenylene-3-ol hydrochloride]	0.0047 µg/mL	> 1 µg/mL	0.0154 µg/mL	0.0121 µg/mL	0.0021 µg/mL	–	–	–	–	–	–
Cl.Oc1ccc2c3c(c4ccccc4c2c1)CN1CCC[C@H]1[C@H]3O [Compound 3, (12aS,13S)-9,10,11,12,12a,13-hexahydro-9a-aza-cyclopenta[b]triphenylene-3,13-diol hydrochloride]	0.173 µg/mL	> 10 µg/mL	0.405 µg/mL	0.14 µg/mL	0.107 µg/mL	–	–	–	–	–	Mortality rate (mice; total dose 25 mg/kg): 0/5; Mortality rate (mice; total dose 50 mg/kg): 0/5
COc1cc2c3c(c4ccc(O)cc4c2c(OC)c1OC)[C@@H](O)[C@H]1CCCN1C3.Cl [Compound 2, (12aR,13R)-5,6,7-trimethoxy-9,10,11,12,12a,13-hexahydro-9a-aza-cyclopenta[b]triphenylene-3,13-diol hydrochloride]	0.001 µg/mL	> 1 µg/mL	0.0036 µg/mL	0.0047 µg/mL	0.0025 µg/mL	–	–	–	–	–	–
CC1(C)Oc2cc3c4c(c5ccc(O)cc5c3cc2O1)[C@H](O)[C@@H]1CCCN1C4.Cl [Compound 9, (12aS,13S)-6,7-isopropylidenedioxy-9,10,11,12,12a,13-hexahydro-9a-aza-cyclopenta[b]triphenylene-3,13-diol hydrochloride]	–	–	–	–	–	0.5216 µg/mL	>10 µg/mL	1.955 µg/mL	0.184 µg/mL	0.3502 µg/mL	Mortality rate (mice; total dose 25 mg/kg): 0/5; Mortality rate (mice; total dose 50 mg/kg): 0/5
Cl.Oc1ccc2c3c(c4ccc(F)cc4c2c1)CN1CCC[C@H]1[C@H]3O [Compound 4, (12aS,13S)-6-fluoro-9,10,11,12,12a,13-hexahydro-9a-aza-cyclopenta[b]triphenylene-3,13-diol hydrochloride]	0.286 µg/mL	> 10 µg/mL	0.503 µg/mL	0.218 µg/mL	0.152 µg/mL	–	–	–	–	–	–
COc1cc2c3c(c4ccc(O)cc4c2cc1OC)C(O)C1(C)CCCN1C3.Cl (stereo not shown) [Compound 6, 6,7-dimethoxy-12a-methyl-9,10,11,12,12a,13-hexahydro-9a-aza-cyclopenta[b]triphenylene-3,13-diol hydrochloride]	1.92 µg/mL	> 10 µg/mL	3.12 µg/mL	0.839 µg/mL	0.757 µg/mL	–	–	–	–	–	Mortality rate (mice; total dose 25 mg/kg): 0/5; Mortality rate (mice; total dose 50 mg/kg): 0/5
COc1ccc2c3c(c4cc(OC)c(OC)cc4c2c1)CN1CCC[C@H]1[C@H]3O [Known Compound 2, (12aS,13S)-3,6,7-trimethoxy-9,10,11,12,12a,13-hexahydro-9a-aza-cyclopenta[b]triphenylene-13-ol, reference compound]	–	–	–	–	–	–	–	–	–	–	Mortality rate (mice; total dose 25 mg/kg, 25 mg/kg): 2/5; Mortality rate (mice; total dose 25 mg/kg, listed as known compound 2, 25 mg/kg): some of the mice also died; Mortality rate (mice; total dose 50 mg/kg, 50 mg/kg): 5/5; Mortality rate (mice; total dose 50 mg/kg, listed as known compound 2, 50 mg/kg): all the mice died
(S)-2-chloro-6,7-dimethoxy-9,10,11,12,12a,13-hexahydro-9a-aza-cyclopenta[b]triphenylene-3-ol methanesulfonate [Compound 21]	–	–	–	–	–	0.0054 µg/mL	>1 µg/mL	0.0067 µg/mL	0.0068 µg/mL	0.008 µg/mL	–
S=C(S)N1CCCC1 [PDTC, pyrrolidine dithiocarbamate, reference compound]	–	–	–	–	–	–	–	–	–	–	IC50 (NFκB; SW480/NRE-Luc cells, 50 ng/mL TNFα, luciferase expression, read-out: NFκB inhibitory activity IC50): 2.4 µg/mL (≈ 16.3 µM); IC50 (SV40 promoter; SW480/SV40-Luc cells, luciferase expression, read-out: SV40 promoter inhibitory activity IC50): > 10 µg/mL
COc1cc2c3c(c4ccc(O)cc4c2cc1OC)C(N)[C@@H]1CCCN1C3.Cl (stereo partly drawn) [Compound 7, (S)-13-amino-6,7-dimethoxy-9,10,11,12,12a,13-hexahydro-9a-aza-cyclopenta[b]triphenylene-3-ol hydrochloride]	0.468 µg/mL	> 10 µg/mL	2.34 µg/mL	0.243 µg/mL	0.265 µg/mL	–	–	–	–	–	–
COc1cc2c3c(c4cc(C)c(O)c(C)c4c2cc1OC)C[C@@H]1CCCN1C3.CS(=O)(=O)O [Compound 26, (S)-6,7-dimethoxy-2,4-dimethyl-9,10,11,12,12a,13-hexahydro-9a-aza-cyclopenta[b]triphenylene-3-ol methanesulfonate]	–	–	–	–	–	0.0597 µg/mL	>10 µg/mL	0.0321 µg/mL	0.05 µg/mL	0.1002 µg/mL	–
(S)-2-fluoro-6,7-dimethoxy-9,10,11,12,12a,13-hexahydro-9a-aza-cyclopenta[b]triphenylene-3-ol methanesulfonate [Compound 25]	–	–	–	–	–	0.0016 µg/mL	>1 µg/mL	0.0031 µg/mL	0.007 µg/mL	0.0026 µg/mL	–
COc1cc2c3c(c4ccc(O)c(Cl)c4c2cc1OC)C[C@@H]1CCCN1C3.CS(=O)(=O)O [Compound 22, (S)-4-chloro-6,7-dimethoxy-9,10,11,12,12a,13-hexahydro-9a-aza-cyclopenta[b]triphenylene-3-ol methanesulfonate]	–	–	–	–	–	0.00041 µg/mL	>0.1 µg/mL	0.0006 µg/mL	0.0041 µg/mL	0.00071 µg/mL	–
COc1cc2c3c(c4ccc(O)cc4c2cc1OC)[C@H](O)[C@@H]1CCCN1C3 [Known compound 1, (12aS,13S)-6,7-dimethoxy-9,10,11,12,12a,13-hexahydro-9a-aza-cyclopenta[b]triphenylene-3,13-diol, reference compound]	–	–	–	–	–	–	–	–	–	–	Mortality rate (mice; total dose 25 mg/kg): 0/5; Mortality rate (mice; total dose 50 mg/kg, 50 mg/kg): 5/5; Mortality rate (mice; total dose 50 mg/kg, listed as known compound 1, 50 mg/kg): all the mice died
